In US11110098B2, “Methods and medicaments for the treatment of renal cell carcinoma” (University of Kansas, priority 2017, dated 2021):

Legend:
[1] = tested on: pERK1/2, ERK1/2, pCREB, CREB, VEGF; test: Immunoblotting of xenograft tumor lysates; format: in vivo, Nu/Nu mice; conditions: tolvaptan 120 mg/Kg oral
Method: (§1) Female Athymic Nude-Foxn1^nu mice (Nu/Nu mice), 7-8 weeks old and weighing ˜25 g were procured from Envigo/Harlan. All animal studies were carried out according to the protocols approved by the University of Kansas Medical Center Institutional Animal Care and Use Committee. Mice were subcutaneously injected on the right flank region with 1×10^6 Caki-1 cells in 100 μl of DMEM medium. One week after injection, palpable tumors appeared and tumor volume was measured with calipers following the formula, Tumor volume=(length×width)/2. Once the tumor volume reached ˜80-100 mm^3, mice were randomized into sub-groups based on the tumor volume. Animals were administered vehicle, OPC31260 (30 mg/Kg BWt.), OPC31260 (60 mg/Kg BWt) or dDAVP (1 μg/Kg BWt.) and vehicle (saline) by daily intraperitoneal injection, or tolvaptan (120 mg/Kg BWt. in 1% aqueous solution of hydroxypropyl methylcellulose-dose derived from previous study^31) or vehicle by daily oral gavage for 28 days. Body weights and tumor volumes were measured every alternate day. At the end of the study, mice were injected with BRDU (100 mg/Kg BWt. by IP) 90 minutes before sacrifice. Tumors were harvested, photographed and weighed. Tumors were flash frozen or paraffin embedded for further analysis.
(§2) Tumors from mouse xenografts and cultured 786-O and Caki-1 cells were homogenized in SDS Laemmli buffer and loaded onto 10% SDS-polyacrylamide agarose gel electrophoresis gels, transferred to nitrocellulose membranes and blocked with 5% milk in TBST^32. Membranes were probed with primary antibody followed by wash and horseradish peroxidase secondary antibody application.

Caki-1 cells [2] = test: Caki-1 xenograft tumor growth in nude mice; format: in vivo, Nu/Nu mice; conditions: OPC31260 30 and 60 mg/Kg
Method: as §1, with “One week after injection, palpable tumors appeared and tumor volume was measured with calipers following the formula, Tumor volume=(length×width)/2.” left out

Caki-1 cells [3] = test: MTT cell viability, Caki-1 cells; format: cell-based; conditions: Homo sapiens, 48 h, read-out: dose at which cell viability declined by 50%
Method: MTT assays were performed to measure cell viability. Briefly, exponentially growing 786-O and Caki-1 cells were seeded in 96 well plates. After 24 h, cells were incubated with different doses of OPC31260 for 48 h. The cells were then incubated in MTT solution (5 mg/mL) for 2 h, following which the MTT solution was removed and the intracellular purple formazan was solubilized in DMSO and quantified by spectrophotometry at […].

Caki-1 cells [4] = test: Annexin V-FITC/PI apoptosis/necrosis, Caki-1 cells; format: cell-based, human; conditions: 24 h
Method: Annexin V-FITC/PI staining was performed for quantification of apoptosis and necrotic cell death using FITC AnnexinV apoptosis detection kit I. Green FITC dye stains apoptotic cells whereas propidium iodide stains necrotic cells with red fluorescence. RCC cells were incubated with OPC31260 for 24 h and washed in cold PBS and resuspended in calcium containing binding buffer (10 mM HEPES, 140 mM NaCl, 5 mM CaCl2; pH 7.4) at a concentration of 1×10^6 cells/ml and stained for 15 min, with 5 μl Annexin V-FITC and 5 μl PI at 1 μg/ml (Cell signaling kit, USA). 10,000 cells were analyzed at an excitation wavelength of 488 nm and emission wavelengths of 530 nm for FITC fluorescence and 610 nm for PI fluorescence. The percentages of viable (Annexin V−PI−), early apoptotic (Annexin V+PI−), late apoptotic/necrotic (Annexin V+PI+) and necrotic cells (Annexin V-PI+) were evaluated with the CellQuestPro® software (Becton, Dickinson, Heidelberg, Germany).

Caki-1 cells [5] = test: Western blot of cell lysate, Caki-1 cells; format: cell-based, human; conditions: 48 h
Description: as §2

Caki-1 cells [6] = test: Clonogenic assay, Caki-1 cells; format: cell-based, human; conditions: 48 h treatment, 10 days growth
Method: 786-O and Caki-1 cells were plated at very low density (1,000 cells/well) in six-well plates. After 16 h, cells were treated with different doses of OPC31260 and incubated for 48 h. Cells were washed and grown for 10 days until visible colonies formed. Colonies were fixed with 4% paraformaldehyde in PBS, stained with 0.25% crystal violet in 25% methanol, washed, air-dried and photographed. Crystal violet was dissolved in sodium citrate buffer (0.1M, 50% ethanol, pH 4.2) and absorbance was recorded at 590 nm.

CCRCC = test: Immunocompetent animal model of spontaneous CCRCC; format: in vivo, Vh1Δ/ΔTrp53Δ/ΔRb1Δ/Δ mice; conditions: treatment from 30 weeks after start of tamoxifen till 56 weeks
Description: The Vh1^Δ/ΔTrp53^Δ/ΔRb1^Δ/Δ mice (Harlander S et al, Nat Med 2017 23(7):869-877) can spontaneously develop CCRCC. Gene deletion of Vhl and tumor suppressors p53 and Rb 1 will be achieved using a Ksp1.3-CreERT2, tamoxifen-inducible system. For the studies, 6-week old Vh1^Δ/ΔTrp53^Δ/ΔRb1^Δ/ΔKsp1.3-CreERT2 mice will be treated with vehicle (saline) or tamoxifen for 14 days used to obtain wildtype control mice and Vh1^Δ/ΔTrp53^Δ/ΔRb1^Δ/Δ mice with RCC stumors. Starting 30 weeks after start of tamoxifen, the wildtype and Vh1^Δ/ΔTrp53^Δ/ΔRb1^Δ/Δ mice will be treated with vehicle, dDAVP, OPC31260, or tolvaptan till 56 weeks. The effect of V2R activation or inhibition will be monitored by MRI as well as by gross and pathological analysis and of kidneys at sacrifice.

[7] = OPC31260 30/60 mg/kg IP, dDAVP 1 μg/Kg IP, 28 days

Question: Which “CREB levels in tumor lysates” value ([1]; OPC31260 30/60 mg/kg IP, 28 days) does the source give for `Cc1ccccc1C(=O)Nc1ccc(C(=O)N2CCCC(N(C)C)c3ccccc32)cc1` (stereo not drawn) [OPC31260, 5-(dimethylamino)-1-[4-(2-methylbenzamido)benzoyl]-2,3,4,5-tetrahydro-1H-benzazepine] here?
Answer: reduced

Question: What about the “pCREB levels in tumor lysates” value [1, 7] of the same molecule?
Answer: reduced

Question: And the “pERK1/2 levels in tumor lysates” value [1, 7]?
Answer: reduced

Question: And the “VEGF protein levels in tumors compared to vehicle” value ([1]; OPC31260 IP, dDAVP 1 μg/Kg IP, daily 28 days)?
Answer: significantly reduced

Question: And the tumor volume (Caki-1 cells [2]; daily intraperitoneal injections, 28 days)?
Answer: failed to show a significant increase

Question: What about the “tumors at sacrifice versus vehicle (tumor weights, FIG. 2)” value (Caki-1 cells [2]; daily intraperitoneal, after 28 days) of the same molecule?
Answer: significantly smaller than in the vehicle treatment group

Question: What about the IC50 (Caki-1 cells [3]) of the same molecule?
Answer: 5 to 10 µM

Question: What about the apoptosis (Caki-1 cells [4]) of the same molecule?
Answer: increase in apoptosis

Question: What about the pCREB levels (Caki-1 cells [5]) of the same molecule?
Answer: dose-dependently reduced

Question: What about the pERK1/2 levels (Caki-1 cells [5]) of the same molecule?
Answer: dose-dependently reduced

Question: And the “dose from which a significant decline in colony formation was observed” value (Caki-1 cells [6])?
Answer: 10 µM

Question: What about the “expected tumor burden / tumor growth” value (CCRCC) of the same molecule?
Answer: significantly suppress tumor growth
